We go through ten compounds from ChEMBL document CHEMBL1201862, “PubChem BioAssay data set” (2004).

Some test systems named below: SR; OVCAR-8; HCT-116; U-251; TK-10; IGROV-1; MCF7; A498; OVCAR-4; BT-549; SK-MEL-2; CCRF-CEM; Hs-578T; M14; MDA-MB-231; RPMI-8226; MDA-N; 786-0; NCI-H460.
Assay in all cases: inhibition of tumour cell growth, NCI panel, 48 h

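All cell lines were grown in 96-well plates and treated with compound for 48 hours. GI50 = concentration required for 50% inhibition of growth.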 Activity calls are given as the source filed them. Rule as the data show it: active = GI50 up to about 1.1 µM and inactive = higher. Some results are limits rather than exact numbers.

Consider `CN(CCn1cnc2c1c(=O)n(C)c(=O)n2C)C1CCCCC1`, for which the GI50 with SR, in the experiment with OVCAR-8, in the experiment with HCT-116, in the experiment on U-251, in the experiment with TK-10 and in the experiment on IGROV-1 was > 100 µM (inactive) in each case. Also, the GI50 in the experiment on MCF7, in the experiment on A498, in the experiment on OVCAR-4, in the experiment on BT-549, in the experiment with SK-MEL-2 and in the experiment on CCRF-CEM was > 100 µM (inactive) in each case. In addition, the GI50 in the experiment on Hs-578T, with M14, in the experiment with MDA-MB-231, with RPMI-8226, in the experiment with MDA-N and in the experiment with 786-0 was > 100 µM (inactive) in each case. The GI50 with NCI-H460 was > 100 µM (inactive).

With `CC1=C[C@@H](C)C[C@]2(C)CC[C@H](O2)[C@]23CC[C@](C(=O)O)(C[C@H](O2)[C@@H]2O[C@@](C)(CC2=O)[C@@H](O)[C@H]2CC[C@@]4(CCC[C@@H](O4)[C@H](C)C(=O)O[C@H]4C[C@H]([C@]5(O)OCC[C@H](C)[C@@H]5O)O[C@H]4C=C1)O2)O3`, the GI50 is > 10 µM (inactive) in the experiment on SR; > 10 µM (inactive) in the experiment on OVCAR-8; > 10 µM (inactive) in the experiment on HCT-116; > 10 µM (inactive) with U-251; > 7.62 µM (inactive) in the experiment on TK-10; > 5.5 µM (inactive) in the experiment with IGROV-1. Also, the GI50 was > 10 µM (inactive) in the experiment on MCF7; > 5.75 µM (inactive) in the experiment with A498; > 10 µM (inactive) in the experiment with OVCAR-4; > 7.83 µM (inactive) in the experiment on BT-549; > 6.85 µM (inactive) in the experiment with SK-MEL-2; > 10 µM (inactive) with CCRF-CEM. Also, the GI50 in the experiment on Hs-578T was > 3.78 µM (inactive); in the experiment on M14, > 9.38 µM (inactive); with MDA-MB-231, > 10 µM (inactive); in the experiment with RPMI-8226, > 10 µM (inactive); with MDA-N, > 8.95 µM (inactive); with 786-0, > 10 µM (inactive). Further, the GI50 with NCI-H460 was > 10 µM (inactive).

With `COc1cc2oc(-c3ccc(O)cc3)c(OC3OC(C)C(O)C(O)C3O)c(=O)c2c(O)c1OC` (stereo not given), the GI50 in the experiment with SR was 27 µM (inactive); in the experiment with OVCAR-8, 91 µM (inactive); in the experiment on HCT-116, 80.4 µM (inactive); in the experiment on U-251 it was 89.5 µM (inactive); with TK-10 it was > 100 µM (inactive); in the experiment with IGROV-1, > 100 µM (inactive). The GI50 is 55.7 µM (inactive) with MCF7; > 100 µM (inactive) in the experiment with A498; 57.8 µM (inactive) in the experiment on OVCAR-4; 62.1 µM (inactive) in the experiment with BT-549; > 100 µM (inactive) in the experiment with SK-MEL-2; 35.6 µM (inactive) in the experiment with CCRF-CEM. Further, the GI50 with Hs-578T is > 100 µM (inactive); in the experiment on M14 it was > 100 µM (inactive); with MDA-MB-231, > 100 µM (inactive); with RPMI-8226, 16.7 µM (inactive); with MDA-N, > 100 µM (inactive); with 786-0, 51.2 µM (inactive). Moreover, in the experiment with NCI-H460, the GI50 is 45.8 µM (inactive).

As for `Cc1cn(CCCCCOC(=O)NC(CCCNC(=N)N)C(=O)O)c(=O)[nH]c1=O` (stereo not given), the GI50 with SR was 2.57 µM (inactive); in the experiment with OVCAR-8 it was 39.4 µM (inactive); in the experiment on HCT-116 it was 37.6 µM (inactive); in the experiment with U-251 it was 50.2 µM (inactive); in the experiment with TK-10 it was > 100 µM (inactive); with IGROV-1, 38.1 µM (inactive). Besides, the GI50 was 54.7 µM (inactive) with MCF7; 24.9 µM (inactive) in the experiment with A498; > 100 µM (inactive) in the experiment with OVCAR-4; > 100 µM (inactive) with BT-549; > 100 µM (inactive) in the experiment on SK-MEL-2; 37.2 µM (inactive) in the experiment with CCRF-CEM. Besides, the GI50 with Hs-578T was 15.5 µM (inactive); with M14 it was 55.6 µM (inactive); in the experiment with MDA-MB-231 it was 69.8 µM (inactive); in the experiment on RPMI-8226, 11.7 µM (inactive); in the experiment on MDA-N, 6.9 µM (inactive); in the experiment with 786-0, 39.4 µM (inactive). Moreover, in the experiment on NCI-H460, the GI50 was 38.2 µM (inactive).

As to `COc1cc(C(N)=O)cc(NC(=O)/C=C/c2ccccc2)c1OC`, the GI50 in the experiment with SR is 74.8 µM (inactive); with OVCAR-8, 61.8 µM (inactive); with HCT-116, > 100 µM (inactive); with U-251, > 100 µM (inactive); with TK-10, > 100 µM (inactive); in the experiment with IGROV-1, > 100 µM (inactive). The GI50 in the experiment on MCF7, in the experiment on A498, in the experiment on OVCAR-4, with BT-549, in the experiment on SK-MEL-2 and with CCRF-CEM was > 100 µM (inactive) in each case. The GI50 in the experiment on Hs-578T, in the experiment with M14, with MDA-MB-231, in the experiment on RPMI-8226, in the experiment with MDA-N and with 786-0 was > 100 µM (inactive) throughout. In addition, the GI50 with NCI-H460 was > 100 µM (inactive).

In the case of `C[C@@H]1CC(=O)[C@@]2(C)[C@](O)(CCC3O[C@]32C)[C@@]12CC(c1ccoc1)OC2=O` (stereo not given in full), the GI50 in the experiment on SR was 30.3 µM (inactive); in the experiment with OVCAR-8, > 100 µM (inactive); in the experiment on HCT-116, 34.5 µM (inactive); in the experiment with U-251, > 100 µM (inactive); in the experiment with TK-10, > 100 µM (inactive); in the experiment with IGROV-1 it was > 100 µM (inactive). Moreover, the GI50 with MCF7 was 84.5 µM (inactive); with A498, 94.4 µM (inactive); with OVCAR-4, > 100 µM (inactive); in the experiment with BT-549, 68.2 µM (inactive); in the experiment on SK-MEL-2, > 100 µM (inactive); in the experiment with CCRF-CEM, 20.5 µM (inactive). In addition, the GI50 is 33.8 µM (inactive) with Hs-578T; 72.4 µM (inactive) in the experiment with M14; > 100 µM (inactive) in the experiment with MDA-MB-231; 33.3 µM (inactive) with RPMI-8226; 33.5 µM (inactive) in the experiment on MDA-N; 75.7 µM (inactive) in the experiment with 786-0. Besides, the GI50 in the experiment on NCI-H460 is 66.7 µM (inactive).

Turning to `COc1ccc2nc3ccc(OC)cc3c(SCCO)c2c1`, the GI50 was 19 µM (inactive) with SR; 17 µM (inactive) in the experiment on OVCAR-8; 15.8 µM (inactive) with HCT-116; 65 µM (inactive) in the experiment with U-251; 51.3 µM (inactive) in the experiment on TK-10; 15 µM (inactive) in the experiment with IGROV-1. The GI50 in the experiment with MCF7 was 6.01 µM (inactive); with A498 it was > 58.1 µM (inactive); in the experiment on OVCAR-4, 63.8 µM (inactive); in the experiment with BT-549, 31.3 µM (inactive); in the experiment on SK-MEL-2, 30 µM (inactive); in the experiment on CCRF-CEM, 3.61 µM (inactive). The GI50 is 15.4 µM (inactive) in the experiment on Hs-578T; 77.3 µM (inactive) with M14; 34.7 µM (inactive) in the experiment with MDA-MB-231; 12.3 µM (inactive) with RPMI-8226; 9.62 µM (inactive) in the experiment on MDA-N; 14.4 µM (inactive) in the experiment with 786-0. The GI50 with NCI-H460 was 68.9 µM (inactive).

Turning to `O=C(O)c1cccc(/[As]=[As]\c2cccc(C(=O)O)c2)c1` (stereo not given), the GI50 is 28.7 µM (inactive) with SR; 34.6 µM (inactive) with OVCAR-8; 36.9 µM (inactive) in the experiment with HCT-116; 15.7 µM (inactive) with U-251; 23.2 µM (inactive) in the experiment with TK-10; 34.2 µM (inactive) in the experiment on IGROV-1. The GI50 with MCF7 is 32.9 µM (inactive); with A498, 28 µM (inactive); in the experiment with OVCAR-4 it was 51.9 µM (inactive); in the experiment on BT-549, 70.6 µM (inactive); with SK-MEL-2, 21.7 µM (inactive); in the experiment on CCRF-CEM, 21.9 µM (inactive). The GI50 is 33.8 µM (inactive) with Hs-578T; 45.9 µM (inactive) in the experiment with M14; 21.6 µM (inactive) in the experiment with MDA-MB-231; 23 µM (inactive) with RPMI-8226; 61.1 µM (inactive) in the experiment on MDA-N; 24.8 µM (inactive) in the experiment with 786-0. Further, in the experiment with NCI-H460, the GI50 was 36 µM (inactive).

In the case of `COC(=O)c1c2c(cc3c1CC1(C3)Cc3ccc4c(c3C1=O)CCC4)CCC2` (stereo not given), the GI50 in the experiment with SR was 1.78 µM (inactive); in the experiment with OVCAR-8 it was 4.61 µM (inactive); in the experiment with HCT-116, 3.01 µM (inactive); in the experiment with U-251 it was 3.33 µM (inactive); in the experiment on TK-10, 8.49 µM (inactive); in the experiment on IGROV-1, 4.99 µM (inactive). Moreover, the GI50 was 2.45 µM (inactive) in the experiment on MCF7; 3.42 µM (inactive) with A498; 10.2 µM (inactive) in the experiment with OVCAR-4; 2.52 µM (inactive) in the experiment on BT-549; 3.98 µM (inactive) with SK-MEL-2; 3.63 µM (inactive) in the experiment on CCRF-CEM. In addition, the GI50 is 1.91 µM (inactive) in the experiment with Hs-578T; 3.03 µM (inactive) with M14; 2.01 µM (inactive) in the experiment with MDA-MB-231; 3.23 µM (inactive) in the experiment with RPMI-8226; 0.608 µM (active) in the experiment with MDA-N; 3.51 µM (inactive) in the experiment on 786-0. Further, in the experiment with NCI-H460, the GI50 is 4.84 µM (inactive).

As to `CC(C)C1=C(O)C(=O)C2=C(C1=O)C(O)CC1C(C)(C)CCCC21C` (stereo not given), the GI50 was 4 µM (inactive) with SR; 5.36 µM (inactive) in the experiment with OVCAR-8; 4.26 µM (inactive) in the experiment with HCT-116; 4.8 µM (inactive) in the experiment on U-251; 14.5 µM (inactive) in the experiment on TK-10; 15.8 µM (inactive) with IGROV-1. The GI50 with MCF7 was 5.87 µM (inactive); with A498, 14.3 µM (inactive); with OVCAR-4, 14.6 µM (inactive); in the experiment with BT-549, 8.55 µM (inactive); with SK-MEL-2, 2.84 µM (inactive); in the experiment on CCRF-CEM it was 6.71 µM (inactive). Also, the GI50 is 3.88 µM (inactive) in the experiment with Hs-578T; 3.92 µM (inactive) with M14; 2.84 µM (inactive) in the experiment on MDA-MB-231; 4.65 µM (inactive) in the experiment with RPMI-8226; 2 µM (inactive) in the experiment with MDA-N; 9.2 µM (inactive) in the experiment with 786-0. For the same compound, the GI50 with NCI-H460 is 2.88 µM (inactive).
